Assay results reported in publication PMC11172478, “1,3,5-Triazine as Branching Connector for the Construction of Novel Antimicrobial Peptide Dendrimers: Synthesis and Biological Characterization” (International Journal of Molecular Sciences, 2024).
In brackets after ≈: the same amount, converted by molar mass. Read-outs that look alike come from different tables or passages of the source. Starred links: 1 amine or outer side, 2 acyl side, 3 side chain; linkers in the order of their positions; H or OH if unused. Positions of bridges follow the written chain, without caps; N, C: chain ends. Non-standard residues stand in square brackets, D forms with d. Residues, ends and D or L forms follow the SMILES beside them. Chains are numbered I, II in the order given. *: point of attachment. X3 = CC(=O)NCCNc1nc(NCCNC(C)=O)nc(N([C@@H](CC(C)C)C(=O)[*:2])[*:1])n1; X4 = CC(=O)NCCNc1nc(NCCNC(C)=O)nc(Oc2ccc(C(=O)*)cc2)n1; X2 = CC[C@H](C)CCCCC(=O)*; Dab = NCC[C@H](N)C(=O)O

Experiments:
Assay type in all cases: cell-based
E. coli ATCC 25922 = conditions: ATCC 25922, 24 h
Protocol: (§1) The antimicrobial activity of the dendrimers was evaluated against E. coli ATCC 25922, P. aeruginosa ATCC 27853 and S. aureus ATCC 29213 strains. The MIC values were determined by the broth microdilution method. Briefly, the different strains were grown in Muller Hinton broth cation adjusted (MHBCA) medium overnight at 37 °C with shaking at 200 rpm. The bacterial cultures were then adjusted to OD625nm of 0.08–0.1, and 5 μL of each diluted suspension was added to 96-well plates previously filled with MHBCA and serially diluted peptides. Plates were incubated for 24 h at 37 °C. Finally, the MIC was determined macroscopically, based on the visual turbidity of the wells.

P. aeruginosa ATCC 27853 = conditions: ATCC 27853, 24 h
Protocol: as §1

S. aureus ATCC 29213 = conditions: ATCC 29213, 24 h
Protocol: as §1

P. aeruginosa P15 = assay: microbe, parasite or virus in culture
Protocol: (§2) E. coli ATCC 25922, P. aeruginosa ATCC 27853, S. aureus ATCC 29213, P. aeruginosa 666 SJD (ciprofloxacin-resistant), P. aeruginosa P12, P13, P15, P16 and P17 (MDR isolates) and E. coli 7987, 5545, 8248, 13974, 7259 and 208691 (MDR isolates) from our own collection were included in the present study.
as §1

E. coli 5545 = assay: microbe, parasite or virus in culture; conditions: Escherichia coli; MDR isolate E. coli 5545; read-out: MIC
Protocol: as §2, §1

P. aeruginosa P12 = assay: microbe, parasite or virus in culture; conditions: MDR isolate P. aeruginosa P12
Protocol: as §2, §1

E. coli 7987 = assay: microbe, parasite or virus in culture; conditions: Escherichia coli; MDR isolate E. coli 7987; read-out: MIC
Protocol: as §2, §1

E. coli 8248 = assay: microbe, parasite or virus in culture; conditions: Escherichia coli; MDR isolate E. coli 8248; read-out: MIC
Protocol: as §2, §1

E. coli 7259 = assay: microbe, parasite or virus in culture; conditions: Escherichia coli; MDR isolate E. coli 7259; read-out: MIC
Protocol: as §2, §1

P. aeruginosa P13 = assay: microbe, parasite or virus in culture
Protocol: as §2, §1

P. aeruginosa P17 = assay: microbe, parasite or virus in culture
Protocol: as §2, §1

E. coli 208691 = assay: microbe, parasite or virus in culture
Protocol: as §2, §1

P. aeruginosa P16 = assay: microbe, parasite or virus in culture; conditions: MDR isolate P. aeruginosa P16
Protocol: as §2, §1

E. coli 13974 = assay: microbe, parasite or virus in culture; conditions: Escherichia coli; MDR isolate E. coli 13974; read-out: MIC
Protocol: as §2, §1

[1] = Pseudomonas aeruginosa, read-out: MIC

| MIC E. coli ATCC 25922 (E. coli ATCC 25922) [µg/mL] | MIC P. aeruginosa ATCC 27853 (P. aeruginosa ATCC 27853) [µg/mL] | MIC S. aureus ATCC 29213 (S. aureus ATCC 29213) [µg/mL] | SMILES | further results |
| --- | --- | --- | --- | --- |
| >64 | >64 | >64 | CC(C)C[C@H](NC(=O)[C@H](CCCCN)NC(=O)[C@H](CC(C)C)NC(=O)[C@H](CCCCN)NC(=O)[C@@H](N)CC(C)C)C(=O)N[C@@H](CCCCN)C(N)=O [A, H-Leu-Lys-Leu-Lys-Leu-Lys-NH2] (H-LKLKLK-NH2) |  |
| 64 (≈ 30.5 µM) | 32 (≈ 15.3 µM) | >64 | CC(C)C[C@H](NC(=O)[C@H](Cc1ccccc1)NC(=O)CNC(=O)c1ccc(Oc2nc(NCCNC(=O)[C@H](CCCCN)NC(=O)[C@H](CC(C)C)NC(=O)[C@H](CCCCN)NC(=O)[C@H](CC(C)C)NC(=O)[C@H](CCCCN)NC(=O)[C@@H](N)CC(C)C)nc(NCCNC(=O)[C@H](CCCCN)NC(=O)[C@H](CC(C)C)NC(=O)[C@H](CCCCN)NC(=O)[C@H](CC(C)C)NC(=O)[C@H](CCCCN)NC(=O)[C@@H](N)CC(C)C)n2)cc1)C(N)=O [B, H-[(LK)3-EDA]2-TA-PHBA-GFL-NH2] |  |
| >64 | >64 | >64 | CC(=O)NCCNc1nc(NCCNC(C)=O)nc(Oc2ccc(C(=O)NCC(=O)N[C@@H](Cc3ccccc3)C(=O)N[C@@H](CC(C)C)C(N)=O)cc2)n1 [C, (Ac-EDA)2-TA-PHBA-GFL-NH2] |  |
|  |  |  | O=C(O)c1cn(C2CC2)c2cc(N3CCNCC3)c(F)cc2c1=O [Ciprofloxacin, reference compound] | MIC (P. aeruginosa P15; Pseudomonas aeruginosa, P15): 256 µg/mL (≈ 773 µM); MIC (E. coli 5545): 64 µg/mL (≈ 193 µM); MIC (P. aeruginosa P12; [1]): 64 µg/mL (≈ 193 µM); MIC (E. coli 7987): 32 µg/mL (≈ 96.6 µM); MIC (E. coli 8248): 32 µg/mL (≈ 96.6 µM); MIC (E. coli 7259): 32 µg/mL (≈ 96.6 µM); MIC (P. aeruginosa P13; Pseudomonas aeruginosa, P13): 128 µg/mL (≈ 386 µM); MIC (P. aeruginosa P17; Pseudomonas aeruginosa, P17): 256 µg/mL (≈ 773 µM); MIC (E. coli 208691; Escherichia coli, 208691): 256 µg/mL (≈ 773 µM); MIC (P. aeruginosa P16; [1]): 64 µg/mL (≈ 193 µM); MIC (E. coli 13974): 32 µg/mL (≈ 96.6 µM) |
|  |  |  | CC[C@H](C)CCCCC(=O)N[C@@H](CCN)C(=O)N[C@H](C(=O)N[C@@H](CCN)C(=O)N[C@H]1CCNC(=O)[C@H]([C@@H](C)O)NC(=O)[C@H](CCN)NC(=O)[C@H](CCN)NC(=O)[C@H](CC(C)C)NC(=O)[C@@H](CC(C)C)NC(=O)[C@H](CCN)NC1=O)[C@@H](C)O [Colistin, reference compound] (X2-[Dab]T[Dab][Dab][Dab][dL]L[Dab][Dab]T; lactam 4-C (inferred); N-terminus assumed) | MIC (P. aeruginosa P15; MDR isolate P. aeruginosa P15): >128 µg/mL; MIC (P. aeruginosa P12): 64 µg/mL (≈ 54.7 µM); MIC (P. aeruginosa P13; MDR isolate P. aeruginosa P13): 32 µg/mL (≈ 27.4 µM); MIC (P. aeruginosa P17; MDR isolate P. aeruginosa P17): >8 µg/mL; MIC (E. coli 208691; MDR isolate E. coli 208691): 0.5 µg/mL (≈ 0.428 µM); MIC (P. aeruginosa P16): 16 µg/mL (≈ 13.7 µM) |
| >64 | >64 | >64 | CC(=O)NCCNc1nc(NCCNC(C)=O)nc(Oc2ccc(C(=O)N[C@@H](CC(C)C)C(=O)N[C@@H](CCCCN)C(=O)N[C@@H](CC(C)C)C(=O)N[C@@H](CCCCN)C(=O)N[C@@H](CC(C)C)C(=O)N[C@@H](CCCCN)C(N)=O)cc2)n1 [D, (Ac-EDA)2-TA-PHBA-(LK)3-NH2] (X4-LKLKLK-NH2) |  |
| >64 | >64 | >64 | CC(=O)NCCNc1nc(NCCNC(C)=O)nc(N[C@@H](CC(C)C)C(=O)N[C@@H](CCCCN)C(=O)N[C@@H](CC(C)C)C(=O)N[C@@H](CCCCN)C(=O)N[C@@H](CC(C)C)C(=O)N[C@@H](CCCCN)C(N)=O)n1 [E, (Ac-EDA)2-TA-(LK)3-NH2] (H-[X3]KLKLK-NH2) |  |
| 32 (≈ 13.8 µM) | >64 | 64 (≈ 27.6 µM) | CC(C)C[C@H](NC(=O)[C@H](CCCCN)NC(=O)[C@H](CC(C)C)NC(=O)[C@H](CCCCN)NC(=O)[C@H](CC(C)C)NC(=O)[C@H](CCCCNC(=O)[C@H](CCCCN)NC(=O)[C@H](CC(C)C)NC(=O)[C@H](CCCCN)NC(=O)[C@H](CC(C)C)NC(=O)[C@H](CCCCN)NC(=O)[C@@H](N)CC(C)C)NC(=O)[C@H](CCCCN)NC(=O)[C@H](CC(C)C)NC(=O)[C@H](CCCCN)NC(=O)[C@H](CC(C)C)NC(=O)[C@H](CCCCN)NC(=O)[C@@H](N)CC(C)C)C(=O)N[C@@H](CCCCN)C(N)=O [F, H-[(LK)3]2-K-(LK)3-NH2] (I: H-LKLKLKKLKLKLK-NH2 / II: H-LKLKLK; amide I:7-II:C) |  |
| >64 | >64 | >64 | CC(C)C[C@H](NC(=O)[C@H](CCCCN)NC(=O)[C@H](CC(C)C)NC(=O)[C@H](CCCCN)NC(=O)[C@H](CC(C)C)NC(=O)[C@H](CCCCN)NC(=O)[C@H](CC(C)C)NC(=O)[C@H](CCCCN)NC(=O)[C@H](CC(C)C)NC(=O)[C@H](CCCCN)NC(=O)[C@H](CC(C)C)NC(=O)[C@H](CCCCN)NC(=O)[C@H](CC(C)C)NC(=O)[C@H](CCCCN)NC(=O)[C@H](CC(C)C)NC(=O)[C@H](CCCCN)NC(=O)[C@@H](N)CC(C)C)C(=O)N[C@@H](CCCCN)C(N)=O [G, H-(Leu-Lys)9-NH2] (H-LKLKLKLKLKLKLKLKLK-NH2) |  |
